Consider 24 compounds from patent US5221606A, “Reagent and kit for enzyme assay comprising a substrate consonant with given enzyme to be assayed” (King's College London, priority 1987, dated 1993).

Structures can show the parent of a compound that is named as a salt.

One series concerns carboxyesterase. As to the kind of experiment: substrate test with carboxyesterase. Type of series: biochemical. How it is done: The serum samples were diluted by a factor of 10 prior to the assay. The substrate solution and the diluted sera were then preincubated at 37° C. in a water bath. Aliquots (0.75 ml) of the substrate solution were then pipetted into small plastic tubes (2 ml capacity), and 0.05 ml samples of the sera were added to each of the substrate aliquots and shaken vigorously to ensure adequate mixing. A blank was run by substituting water (0.05 ml) for the serum. The reaction was stopped after 10 min by the addition of the stopping buffer (0.25 ml) [prepared by dissolving DABCO (22.4 g) in water (200 ml) and adjusting the pH to 10 by the addition of a little conc. hydrochloric acid. The resulting mixture was then made up to 1000 ml with acetone]. […] [formula] where t=time of incubation in hours
Otherwise it was carried out in exactly the same ways as above

A short description of series [1]: solubility in water or aqueous buffer.
The subject of series [2] is N-acetyl-β-D-glucosaminidase (NAGase). As to the kind of experiment: substrate test with N-acetyl-β-D-glucosaminidase. The format is biochemical. The protocol:
METHOD. The MIXTURE A is dissolved in 10 ml of distilled water to give SOLUTION A. The solution should be allowed to stand in a thermostatically controlled bath at 37° C., and then 0.75 ml of the solution is added to a series of suitable tubes of 2 ml capacity. To these tubes is added, with vigorous stirring, […] aliquots of the urines under examination, and a blank is prepared by adding 0.05 ml of distilled water rather than urine to one of the tubes. The tubes are then incubate for a set length of time (preferably 30 min), after which 0.25 ml of the STOPPING BUFFER is added to each tube and the absorption (A) at 505 nm is determined for each sample, and adjusted for the value of the blank.
The enzyme activity of the enzyme in each sample is given by the expression using and εmax =42,000. [formula] where t=time of incubation in hours

In another series the target is E. Coli β-galactosidase (Escherichia coli, UniProt P00722). As to the kind of experiment: substrate test with β-galactosidase. Type of series: biochemical.
In a further series the test system is alkaline phosphatase. As to the kind of experiment: substrate test with alkaline phosphatase. Type of series: biochemical.
Where [3] appears, read: E. coli β-galactosidase, unit inferred.

Sequence of E. Coli β-galactosidase (P00722 2-1024): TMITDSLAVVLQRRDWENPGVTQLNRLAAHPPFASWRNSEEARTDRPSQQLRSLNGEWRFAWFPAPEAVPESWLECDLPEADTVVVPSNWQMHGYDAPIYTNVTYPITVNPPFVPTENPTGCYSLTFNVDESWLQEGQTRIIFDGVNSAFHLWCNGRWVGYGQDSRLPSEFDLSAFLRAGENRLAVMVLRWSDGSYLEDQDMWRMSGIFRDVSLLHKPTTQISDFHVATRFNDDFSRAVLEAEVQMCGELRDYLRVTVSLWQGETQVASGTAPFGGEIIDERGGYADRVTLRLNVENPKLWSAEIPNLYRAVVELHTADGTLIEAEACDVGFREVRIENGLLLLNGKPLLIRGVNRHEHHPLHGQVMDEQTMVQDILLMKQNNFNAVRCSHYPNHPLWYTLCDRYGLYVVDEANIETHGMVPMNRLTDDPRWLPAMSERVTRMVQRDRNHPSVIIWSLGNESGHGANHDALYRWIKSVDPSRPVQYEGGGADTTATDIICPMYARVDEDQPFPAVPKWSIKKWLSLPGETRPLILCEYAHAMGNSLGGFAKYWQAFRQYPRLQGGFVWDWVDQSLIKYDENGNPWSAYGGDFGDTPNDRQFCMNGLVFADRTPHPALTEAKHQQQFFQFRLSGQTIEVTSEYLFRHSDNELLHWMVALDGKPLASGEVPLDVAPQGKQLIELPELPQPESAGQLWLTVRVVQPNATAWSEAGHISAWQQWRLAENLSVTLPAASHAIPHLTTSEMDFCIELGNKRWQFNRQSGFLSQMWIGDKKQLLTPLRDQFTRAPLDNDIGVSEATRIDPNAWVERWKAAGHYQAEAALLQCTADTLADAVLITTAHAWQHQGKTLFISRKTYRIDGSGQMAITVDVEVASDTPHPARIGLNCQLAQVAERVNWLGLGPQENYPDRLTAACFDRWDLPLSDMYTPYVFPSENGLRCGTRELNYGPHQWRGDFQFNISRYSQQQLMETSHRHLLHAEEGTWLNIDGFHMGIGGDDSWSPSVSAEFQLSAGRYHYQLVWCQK

On to “2-[2-(4-Benzoyloxy-3-methoxyphenyl)-vinyl-1-methylquinolinium iodide [21e]”, for which the “quality as substrate for / cleavage by carboxyesterase” value (from here on “quality as substrate for / cleavage”) with carboxyesterase was “readily cleaved”.

For `CCC(=O)Oc1ccc(C=C2SC(=S)NC2=O)cc1OC` [3d, n=1, 5-(4-propanoyloxy-3-methoxyphenylmethylene)-2-thioxothiazolidin-4-one], in the series with carboxyesterase, the “quality as substrate for / cleavage” value is given as “cleaved by carboxyesterase”. The “solubility in water” value in series [1] (water) is given as “slightly soluble in water”.

By Km is commonly meant the substrate concentration at which the rate is half of its maximum. The term solubility denotes how much of the substance goes into solution per volume. As for `COc1cc(C=C2SC(=S)N(CC(=O)O)C2=O)ccc1O[C@@H]1O[C@H](CO)[C@@H](O)[C@H](O)[C@H]1NC(C)=O` [4b], the “quality as substrate for NAGase” value in series [2] is reported as “excellent substrate”. Also, the Km in series [2] (substrate for NAGase) was determined as 980 µM. This compound also came in with a solubility in series [1] (water) of no more than 10000 µM.

As to `COc1cc(C=C2SC(=S)N(CC(=O)O)C2=O)ccc1O[C@@H]1O[C@H](CO)[C@H](O)[C@H](O)[C@H]1O` [4c, Ammonium 5-[4-(β-D-galactopyranosyloxy)-3-methoxyphenyl-methylene]-2-thioxothiazolidin-4-one-3-ethanoate], the “quality as substrate for E. Coli β-galactosidase” value on E. Coli β-galactosidase was “very good substrate”. For the same compound, the “solubility in water” value in series [1] (water) is reported as “easily soluble in water”.

On to `COc1cc(C=C2SC(=S)N(C)C2=O)ccc1OP(=O)(O)O` [9F, 5-(4-Phosphoroyloxy-3-methoxyphenylmethylene)-2-thioxo-3-methylthiazolidine-4-one], for which the “quality as substrate for / hydrolysis by alkaline phosphatase” value (from here on “quality as substrate for / hydrolysis”) in the series on alkaline phosphatase is “hydrolysed readily”. In series [1] (water), the “solubility in water” value was “very soluble in water”.

As to `COc1cc(C=C2SC(=S)N(CC(=O)O)C2=O)cc(OC)c1O[C@@H]1O[C@H](CO)[C@@H](O)[C@H](O)[C@H]1NC(C)=O` [11b], the “quality as substrate for NAGase” value in series [2] is reported as “fair substrate”. Further, the “solubility in water” value in series [1] (water) was “soluble in water”.

With `COc1cc(C=C2SC(=S)N(CC(=O)O)C2=O)cc(OC)c1OC(=O)c1ccccc1` [11e], in the series with carboxyesterase, the “quality as substrate for / cleavage” value is “excellent substrate”.

In the case of `CCC(=O)Oc1c(OC)cc(C=C2SC(=S)N(c3ccc(C(=O)O)cc3)C2=O)cc1OC` [13d, n=1, 3-(4-carboxyphenyl)-5-(3,5-dimethoxy-4-propanoyloxyphenylmethylene)-2-thioxothiazolidin-4-one], the “quality as substrate for / cleavage” value with carboxyesterase is listed as “reacted with carboxyesterase”.

For `COc1cc(C=C2SC(=S)N(c3ccc(S(=O)(=O)O)cc3)C2=O)cc(OC)c1OC(=O)c1ccccc1` [14e, Potassium 5-(4-benzoyloxy-3,5-dimethoxyphenylmethylene) -2-thioxothiazolidin-4-one-3-(phenyl-4-sulphonate)], in the series on carboxyesterase, the “quality as substrate for / cleavage” value was “hydrolysed by carboxyesterase”.

In the case of `COc1cc(N2C(=O)C(=Cc3cc(OC)c(OP(=O)(O)O)c(OC)c3)SC2=S)cc(OC)c1OC` [15f, 2-Thioxo-3-(3,4,5-trimethoxyphenyl)-5-(3,5-dimethoxy-4-phosphoroyloxyphenylmethylene)-thiazolidin-4-one], the “quality as substrate for / hydrolysis” value with alkaline phosphatase is on record as “hydrolysed by alkaline phosphatase”. Further, in series [1] (alkaline buffers (pH 8 etc.)), the “solubility in alkaline buffers” value is “moderately soluble”.

As for `COc1cc(C=C2SC(=S)N(C)C2=O)cc(OC)c1OP(=O)(O)O` [16f, 5-(4-Phosphoroyloxy-3,5-dimethoxyphenylmethylene)-2-thioxo-3-methylthiazolidine-4-one], the Km in the series on alkaline phosphatase (phosphatase) was 330 µM.

For the compound `COc1cc(/C=C/c2cc[n+](C)cc2)ccc1O[C@@H]1O[C@H](CO)[C@H](O)[C@H](O)[C@H]1O` [19c], the “quality as substrate for E. Coli β-galactosidase” value at E. Coli β-galactosidase was “substrate”. Also, the “solubility in water” value in series [1] (water) was “fair solubility”.

On to `COc1cc(/C=C/c2ccc3ccccc3[n+]2C)ccc1O[C@@H]1O[C@H](CO)[C@@H](O)[C@H](O)[C@H]1NC(C)=O` [21b, 2-{2-[4-(2-Acetamido-2-deoxy-β-D-glucopyranosyloxy)-3-methoxyphenyl]-vinyl}-1-methylquinolinium iodide], for which the “quality as substrate for NAGase” value in series [2] was “substrate”.

Regarding `COc1cc(/C=C/c2ccc3ccccc3[n+]2C)ccc1O[C@@H]1O[C@H](CO)[C@H](O)[C@H](O)[C@H]1O` [21c, 2-{2-[4-(β-D-Galactopyranosyloxy)-3-methoxyphenyl]-vinyl}-1-methylquinolinium iodide], the “quality as substrate for E. Coli β-galactosidase” value on E. Coli β-galactosidase is “excellent substrate”. On E. Coli β-galactosidase (setting [3]), the Km was roughly 200 µM. Besides, the “% of vmax achieved” value on E. Coli β-galactosidase (at a concentration of 0.5 mM) was 90%. Also, the “solubility in water” value in series [1] (water) was “very good water solubility”.

For `COc1cc(/C=C/c2ccc3ccccc3[n+]2C)cc(OC)c1O[C@@H]1O[C@H](CO)[C@H](O)[C@H](O)[C@H]1O` [22c, 2-{2-[4-(β-D-Galactopyranosyloxy)-3,5-dimethoxyphenyl]-vinyl}-1-methylquinolinium iodide], the “quality as substrate for E. Coli β-galactosidase” value at E. Coli β-galactosidase is “good a substrate”. Besides, the “solubility in water” value in series [1] (water) is listed as “easily soluble in water”.

With `COc1cc(/C=C/c2ccc3ccccc3[n+]2C)cc(OC)c1OP(=O)(O)O` [22f, 2-[2-(4-phosphoroyloxy-3,5-dimethoxyphenyl)-vinyl]-1-methylquinolinium iodide], the “quality as substrate for / hydrolysis” value with alkaline phosphatase is “good substrate”. Moreover, the “% of vmax achieved” value with alkaline phosphatase (at a concentration of 0.5 mM) is 42%. Further, the Km with alkaline phosphatase (phosphatase) worked out at 680 µM. Also, in series [1] (water), the “solubility in water” value is given as “very soluble in water”.

Regarding `COc1cc(/C=C/c2cc[n+](C)c3ccccc23)ccc1O[C@@H]1O[C@H](CO)[C@H](O)[C@H](O)[C@H]1O` [23c, 4-{2-[4-(β-D-Galactopyranosyloxy)-3-methoxyphenyl]-vinyl}-1-methylquinolinium iodide], the “quality as substrate for E. Coli β-galactosidase” value on E. Coli β-galactosidase is given as “excellent substrate”. The Km at E. Coli β-galactosidase (setting [3]) was 62 µM. Further, the “% of vmax achieved” value on E. Coli β-galactosidase (at a concentration of 0.5 mM) came out at 95%. For the same compound, the substrate inhibition entry on E. Coli β-galactosidase (at concentrations higher than 0.5 mM) is recorded as “slight substrate inhibition”. Further, in series [1] (water), the “solubility in water” value is on record as “good water solubility”.

In the case of `COc1cc(/C=C/c2cc[n+](C)c3ccccc23)cc(OC)c1O[C@@H]1O[C@H](CO)[C@H](O)[C@H](O)[C@H]1O` [24c, 4-{2-[4-(β-D-Galactopyranosyloxy)-3,5-dimethoxyphenyl]-vinyl}-1-methylquinolinium iodide], on E. Coli β-galactosidase, the “quality as substrate for E. Coli β-galactosidase” value is listed as “good a substrate”. The “solubility in water” value in series [1] (water) is on record as “easily soluble in water”.

Turning to `CCC[n+]1ccc(/C=C/c2cc(OC)c(OP(=O)([O-])O)c(OC)c2)c2ccccc21` [25f, 4-[2-(4-Phosphoroyloxy-3,5-dimethoxyphenyl)-vinyl]-1-propylquinolinium], in the series on alkaline phosphatase, the “quality as substrate for / hydrolysis” value is “excellent substrate”. Further, the Km in the series on alkaline phosphatase (alkaline phosphatase, unit inferred) turned out to be 176 µM. In addition, the “% of vmax achieved” value in the series with alkaline phosphatase (at a concentration of 1 mM) came to 86%. Also, the “solubility in water” value in series [1] (water) is on record as “water soluble”.

As to `COc1cc(/C=C/c2sc3ccccc3[n+]2C)ccc1O[C@@H]1O[C@H](CO)[C@H](O)[C@H](O)[C@H]1O` [26c, 2-{2-[4-(β-D-Galactopyranosyloxy)-3-methoxyphenyl]-vinyl}-3-methylbenzothiazolium tosylate], at E. Coli β-galactosidase, the “concentration above which substrate inhibition starts to show” value was “above 0.7 mM”, the pH optimum was determined as 6.5 and the “quality as substrate for E. Coli β-galactosidase” value is given as “reacted to give an intense violet-red solution”. The “% of vmax achieved” value at E. Coli β-galactosidase (at a concentration of 1 mM) was 95%. For the same compound, the Km on E. Coli β-galactosidase (β-D-galactosidase from E. Coli) was 230 µM. The “solubility in water” value in series [1] (water) is given as “very soluble in water”.

For `CCN1C(=O)C(=Cc2ccc(OP(=O)(O)O)c(OC)c2)C(=O)N(CC)C1=S` [27f], in the series with alkaline phosphatase, the “quality as substrate for / hydrolysis” value is “cleaved by alkaline phosphatase”. Besides, the “solubility in water” value in series [1] (water) was “good solubility”.

On to `CCC(=O)Oc1c(OC)cc(C=C2C(=O)NC(=S)NC2=O)cc1OC` [28d, n=1, 4,6-dioxo-5-(4-propanoyloxy-3,5-dimethoxyphenylmethylene)-2-thioxo-1,3-diazacyclohexane], for which the “quality as substrate for / cleavage” value in the series with carboxyesterase is reported as “poor-to-moderate substrate”. In addition, the “solubility in water” value in series [1] (water) is recorded as “not particularly good”.

As for `COc1cc(C=C2C(=O)N(c3ccc(S(=O)(=O)O)cc3)N=C2C)cc(OC)c1OC(=O)c1ccccc1` [29e, Potassium 1-(benzene-4-sulfonate)-4-(4-Benzolyloxy-3,5-dimethoxyphenylmethylene)-3-methyl-5-pyrazalone], the “quality as substrate for / cleavage” value in the series with carboxyesterase is recorded as “substrate for carboxyesterase”.

On to `COc1cc(C=CC=C2SC(=S)N(CC(=O)O)C2=O)ccc1OC(C)=O` [compound 30, Piperidinium 5-[3-(4'-ethanoyloxy-3'-methoxyphenyl)-prop-2-enylidene]-2-thioxothiazolidin-4-one-3-ethanoate], for which the “quality as substrate for / cleavage” value in the series with carboxyesterase is reported as “hydrolysed”.
